Results taken from patent US6428823B1, “Biologically active aqueous fraction of an extract obtained from a mangrove plant Salvadora persica L” (Council of Scientific & Industrial Research, priority 2001, dated 2002).

Tested on: mammalian tissues
Experiment: pharmacological screening of purified compounds in mammalian tissues
Conditions: result in words
Source text: The invention further relates to methods of screening pharmacological activities of the said compounds in mammalian tissues.
vii) testing the pure compounds by using methods of pharmacology, and
Pharmacological Testing of Pure Compounds

C=C(C)[C@@H]1CC[C@]2(CO)CC[C@]3(C)[C@H](CC[C@@H]4[C@@]5(C)CC[C@H](O)C(C)(C)[C@@H]5CC[C@]43C)[C@@H]12 [Betulin]
biological activity shown by the extract: maintained

CCCCCCCCCCCCCCCC(=O)OC [Methyl palmitate]
biological activity shown by the extract: maintained
